{
  "source": "patent US20030180295A1",
  "about": "“Angiocidin: a Cys-Ser-Val-Thr-Cys-Gly specific tumor cell adhesion receptor” (Philadelphia Health and Education Corporation, priority 1999, published 2003)",
  "key": {"[1]": {"system": "Bovine aortic endothelial cells (BAEC)", "experiment": "Collagen matrix angiogenesis assay (microvessel formation)", "assay_type": "cell-based", "conditions": "37 μg/ml, 24 hours", "method": "An experiment was performed to evaluate the effect of angiocidin on angiogenesis. Bovine aortic endothelial cells (BAEC) were plated on a collagen matrix. Next, the cells were over-layered with collagen. Angiocidin (37 μg/ml) was added on top of the cells in the treatment plate, and the control plate only received buffer. After 24 hours, phase contrast photomicrographs (200×) were taken. In the control plate, the BAEC cells rearranged themselves into a network of microvessels. […] This collagen assay is a well recognized model for angiogenesis. Qian et al., Thrombospondin-1 modulates angiogenesis in vitro by up-regulation of matrix metalloproteinase-9 in endothelial cells, Exp. Cell Res. 235:403-412 (1997)."}, "TSP-1": {"molecular_target": "TSP-1 (Homo sapiens, UniProt P07996)", "sequence (P07996 19-1170)": "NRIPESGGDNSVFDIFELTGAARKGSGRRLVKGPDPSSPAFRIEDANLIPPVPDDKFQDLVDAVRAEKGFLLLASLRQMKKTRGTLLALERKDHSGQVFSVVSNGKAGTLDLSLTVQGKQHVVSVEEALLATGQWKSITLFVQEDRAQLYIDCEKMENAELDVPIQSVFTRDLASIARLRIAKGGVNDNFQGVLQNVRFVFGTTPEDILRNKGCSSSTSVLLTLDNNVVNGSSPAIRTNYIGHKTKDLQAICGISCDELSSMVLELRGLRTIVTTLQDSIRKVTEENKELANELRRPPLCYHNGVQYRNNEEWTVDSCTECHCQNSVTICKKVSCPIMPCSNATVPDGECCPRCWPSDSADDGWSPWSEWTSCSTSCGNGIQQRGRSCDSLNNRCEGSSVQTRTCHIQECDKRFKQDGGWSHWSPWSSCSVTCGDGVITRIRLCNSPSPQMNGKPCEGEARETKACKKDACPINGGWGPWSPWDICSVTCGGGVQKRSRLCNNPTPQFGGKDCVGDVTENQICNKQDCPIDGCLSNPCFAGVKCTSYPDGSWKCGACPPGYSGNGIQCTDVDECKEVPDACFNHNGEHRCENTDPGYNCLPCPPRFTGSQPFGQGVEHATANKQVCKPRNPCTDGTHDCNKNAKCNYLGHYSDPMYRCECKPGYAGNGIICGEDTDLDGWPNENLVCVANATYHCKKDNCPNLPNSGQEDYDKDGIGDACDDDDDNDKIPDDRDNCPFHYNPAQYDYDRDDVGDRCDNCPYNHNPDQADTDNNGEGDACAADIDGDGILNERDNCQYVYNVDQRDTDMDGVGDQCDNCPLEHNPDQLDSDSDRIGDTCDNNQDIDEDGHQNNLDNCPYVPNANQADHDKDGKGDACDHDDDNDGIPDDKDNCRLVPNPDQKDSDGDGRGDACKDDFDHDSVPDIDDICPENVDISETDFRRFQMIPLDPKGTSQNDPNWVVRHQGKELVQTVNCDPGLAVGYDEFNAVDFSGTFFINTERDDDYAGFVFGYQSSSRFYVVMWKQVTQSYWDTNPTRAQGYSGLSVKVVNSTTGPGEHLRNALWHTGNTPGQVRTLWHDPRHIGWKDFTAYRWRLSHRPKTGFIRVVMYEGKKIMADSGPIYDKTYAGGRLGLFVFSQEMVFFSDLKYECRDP", "experiment": "Optical binding of angiocidin fragments to TSP-1 derivatized cuvette", "conditions": "test proteins at 10 nm in PBS buffer", "method": "This study examines the amino terminal (Met1-Lys132) and carboxy terminal (IIe248-Lys380) portions of angiocidin (SEQ ID NOS: 24 and 25, respectively). The binding of undenatured recombinant angiocidin fragments was compared to full length angiocidin. GST was used as a negative control. Binding was evaluated using an optical binding method that uses a cuvette to which TSP-1 is covalently coupled. A laser beam was used to detect whether the test protein (fragments, angiocidin, or GST) is bound to the TSP-1 derivatized cuvette surface. The cuvette was derivatized with 1 μg of TSP-1. The cuvette surfaces were blocked with a 1% BSA solution to prevent nonspecific binding. The test proteins were added at a concentration of […] in a PBS buffer."}, "[2]": {"system": "Bovine Smooth Muscle Cells (BSM)", "experiment": "ALAMAR BLUE cell viability assay", "assay_type": "cell-based", "conditions": "0 to 37 μg/ml, 24 hours", "method": "Bovine aortic endothelial cells (BAEC), human umbilical vein endothelial cells (HUVEC), fibroblast cells, A549 human lung carcinoma cells (A549), MDA-MB231 human breast carcinoma cells (MB231), MCF7 human breast carcinoma cells (MCF7) were treated with 37 μg/ml of receptor, or buffer alone, for 24 hours. Viability of the cells was measured using the ALAMAR BLUE™ assay, which measures the capacity of cells to metabolize the ALAMAR BLUE™ dye. The ALAMAR BLUE™ assay (available from Biosource International, Camarillo, Calif.) quantitatively measures the proliferation of cell lines and can establish the relative cytotoxicity of chemical agents. The assay incorporates a fluorometric/colorimetric growth indicator based on detection of metabolic activity. The system incorporates an oxidation-reduction (redox) indicator that both fluoresces and changes color in response to chemical reduction of growth medium resulting from cell growth. […] Data can be collected using either fluorescence-based instrumentation (530-560 nm excitation wavelength and 590 nm emission wavelength) or absorbance-based instrumentation (570 nm and 600 nm).\nBAEC and BSM cells were treated with increasing concentrations of angiocidin (0, 0.625, 1.25, 2.5, 5, 15, 26 and 37 μg/ml) for 24 hours. Cell viability was measured using the ALAMAR BLUE Tm assay. […]"}, "Lewis lung carcinoma": {"system": "Lewis lung carcinoma", "experiment": "Growth of Lewis lung carcinoma flank tumors", "assay_type": "in vivo, mice", "conditions": "50 μg IV on days 1, 3, 5", "from_the_text": "Ten animals were subcutaneously injected in the flank with […] Lewis lung carcinoma cells. Evaluation of flank tumors is a well recognized model for angiogenesis, because flank tumors are highly dependent on angiogenesis. O'Reilly, M. S., Angiostatin: A Novel Angiogenesis Inhibitor that Mediates the Suppression of Metastasis by a Lewis Lung Carcinoma, Cell 79: 315-28 (1994). After 9 days when a palpable tumor developed, mice were divided into two groups of 5 animals per group. One group of 5 mice were treated with an IV injection of 50 μg of angiocidin in Hepes buffered saline. The control group was treated with Hepes buffered saline. Mice were treated on days 1, 3, and 5 after the groups were divided, and sacrificed on day 7.\nThe tumors were embedded in paraffin and cut into 5 micron sections. The sections were stained with hemotoxylin and eosin. Hemotoxylin stains DNA blue, and eosin stains protein pink. FIG. 36 illustrates the difference between control (panels A and C) and angiocidin (panels B and D) treated cells. Panels A and B are at a magnification of 400×under a light microscope and panels C and D are at a magnification of 200×under a light microscope."}, "[3]": {"system": "human umbilical vein endothelial cells (HUVEC)", "experiment": "ALAMAR BLUE cell viability assay", "assay_type": "cell-based", "conditions": "24 hours", "method": "Bovine aortic endothelial cells (BAEC), human umbilical vein endothelial cells (HUVEC), fibroblast cells, A549 human lung carcinoma cells (A549), MDA-MB231 human breast carcinoma cells (MB231), MCF7 human breast carcinoma cells (MCF7) were treated with 37 μg/ml of receptor, or buffer alone, for 24 hours. Viability of the cells was measured using the ALAMAR BLUE™ assay, which measures the capacity of cells to metabolize the ALAMAR BLUE™ dye. The ALAMAR BLUE™ assay (available from Biosource International, Camarillo, Calif.) quantitatively measures the proliferation of cell lines and can establish the relative cytotoxicity of chemical agents. The assay incorporates a fluorometric/colorimetric growth indicator based on detection of metabolic activity. The system incorporates an oxidation-reduction (redox) indicator that both fluoresces and changes color in response to chemical reduction of growth medium resulting from cell growth. This causes the redox indicator to change from its oxidized, non-fluorescent, blue form to its reduced, fluorescent, red form. Data can be collected using either fluorescence-based instrumentation (530-560 nm excitation wavelength and 590 nm emission wavelength) or absorbance-based instrumentation (570 nm and 600 nm).\nSimilarly, the effect of receptor on viability of BAEC cells was compared to mouse Lewis lung carcinoma cells, using the same method.\nThe effect of angiocidin on HUVEC cell viability was evaluated, and FGF and TSP-1 were added to determine whether they ameliorated the angiocidin effect on cell viability. FGF (Fibroblast Growth Factor) is an endothelial cell mitogen, which promotes cell growth. […] TSP-1 was expected to reverse the inhibition of angiocidin; however, quantities added may have been insufficient to provide the correct molar ratio."}, "[4]": {"system": "MDA-MB-435 Breast Carcinoma Cells", "experiment": "Cell adhesion to immobilized recombinant receptor", "assay_type": "cell-based", "method": "For the adhesion assay, in a 96 well plate, duplicate wells were covered with either TSP-1 (40 μg/ml), fibronectin (40 μg/ml), or and 1% bovine serum albumin (BSA). The wells were dried out overnight and then blocked with BSA. 100 μl of a suspension containing 2×10^5 cells were plated in the protein covered wells and incubated at 37^□ C. for 20 minutes to 1 hour. The non-adherent cells were removed and the wells were washed with a Hepes buffer. The adherent cells were fixed with 2.5% glutaraldehyde for 10 minutes and stained with 0.2% Giemsa. The stain was washed off and the cells were counted in a field of 1 mm square. Cells adhering to BSA were considered background while cells adhering to fibronectin were the positive control.\nThe method of Example 12 was followed except the whole receptor protein was immobilized on the plates, and cells transfected with either TSP-1 cDNA or a vector control were applied to the plates. The cells, which naturally express a low level of TSP-1, were transfected to over express the protein. […] Fibronectin and BSA were used as positive and negative controls, respectively, for cell adhesion. This evidence bolsters the theory that the receptor of the present invention binds to thrombospondin.\nThis specific interaction was confirmed by adding anti-TSP-1 antibodies, Anti-Cys-Ser-Val-Cys-Thr-Gly (SEQ ID NO: 1), and control IgG to the system."}},
  "data": [
    {"substance": "angiocidin: Cys-Ser-Val-Thr-Cys-Gly (SEQ ID NO: 1)-specific thrombospondin (TSP-1) receptor protein; recombinant form of SEQ ID NO: 2 used in the Examples", "values": [
      {"measurement": "microvessel formation", "setting": "[1]", "value": "the microvessels did not form and the cells appeared dead"},
      {"measurement": "binding to TSP-1 derivatized cuvette", "setting": "TSP-1", "value": "show very similar binding at the nano molar range"},
      {"measurement": "cell viability", "setting": "[2]", "value": "unaffected"},
      {"measurement": "tumor histology (hemotoxylin and eosin)", "setting": "Lewis lung carcinoma", "value": "significant necrosis and cell death"},
      {"measurement": "tumor growth (relative tumor volumes)", "setting": "Lewis lung carcinoma; 7 day treatment period", "value": "grew only slightly and at a linear rate"},
      {"measurement": "flank tumor size", "setting": "Lewis lung carcinoma; sacrificed day 7", "value": "much smaller than the control mice"},
      {"measurement": "cell viability", "setting": "[3]; 0 to 37 μg/ml", "value": "decreasing their viability"},
      {"measurement": "decrease of cell viability", "setting": "[3]; 37 μg/ml", "value": "70-80%"},
      {"measurement": "inhibition of cell adhesion to receptor bound to the plate by unbound receptor", "setting": "[4]; nontransfected, naturally TSP-1 expressing cells, FIG. 17", "value": "reduced the adhesion of the cells to the plate"},
      {"measurement": "adhesion of TSP-1 cDNA transfected cells to plates with receptor protein relative to control cell line", "setting": "[4]; p<0.001", "value": 2.5, "unit": "times"}
    ]}
  ]
}
